The text below walks through data of PubChem BioAssay AID1895 (NMMLSC, 2009).

In general, EC50 refers to the concentration giving half of the maximal effect. By Ki is commonly meant the equilibrium dissociation constant of an inhibitor or competing ligand from its target.

This assay addresses MEK5 PB1 domain binding to MEKK2 (MAP3K2) mutant PB1, human. Put plainly: inhibitors of MEK5 binding to mutant MEKK2, dose response, biochemical, bead multiplex flow cytometry (AID 1895). The following applies: Bead-based multiplex flow cytometry; for Ki: measured here: Ki for PB1 binding.

Calls of active or inactive are those of the source. No rule for the calls is given here. A value given as a limit tells only on which side of the number the result lay.

For the compound `C#CCOCCOCCOCCNc1nc(N2CCN(C(=O)[C@H](Cc3ccc(O)cc3)n3cc([C@@H](N)C(C)CC)nn3)CC2)nc(N2CCN(C(=O)[C@H](Cc3cc4ccccc4[nH]3)n3cc([C@@H](N)Cc4ccc(O)cc4)nn3)CC2)n1` (stereo not given in full), the EC50 is > 30 µM (inactive).

Take `COc1ccc2nc3cc(Cl)ccc3c(Nc3cc(C(C)C)c(O)cc3C)c2c1`: the EC50 was 5.37 µM.

For the compound `C=CCN1C(=O)/C(=C/c2ccc(-c3ccc(F)cc3)o2)SC1=S`, the EC50 entry was “inactive”.

As for `CCOc1cccc2sc(N(CCCN(C)C)C(=O)c3ccc(S(=O)(=O)N4CCc5ccccc5C4)cc3)nc12`, the EC50 was 12.1 µM.

Turning to `Nc1ccc(N)c(C(=O)O)c1`, the EC50 is > 30 µM (inactive).

For the compound `CCCCCc1cc(=O)oc2c(C(CCN3CCCCC3)c3ccc4c(c3)OCO4)c(OC)cc(OC)c12` (stereo not given), the EC50 was > 30 µM (inactive).

In the case of `C/C(=N\NC(=O)c1cc(O)cc(O)c1)c1ccc(NC(=O)Cc2ccccc2)cc1`, the EC50 was > 30 µM (inactive).

Turning to `C#CCOCCOCCOCCNc1nc(N2CCN(C(=O)[C@H]([C@@H](C)CC)n3cc([C@@H](N)Cc4ccc(O)cc4)nn3)CC2)nc(N2CCN(C(=O)[C@H](Cc3cc4ccccc4[nH]3)n3cc([C@@H](N)C(C)CC)nn3)CC2)n1` (stereo not given in full), the EC50 is 10.1 µM.

For the compound `COc1ccc2nc(C)cc(N/N=C/c3ccc(F)cc3)c2c1`, the EC50 was > 30 µM (inactive).

Consider `C=CC#CC[N+]1(CC#Cc2ccccc2)CCOCC1`, for which the EC50 was > 30 µM (inactive).

`C#CCOCCOCCOCCNc1nc(N2CCN(C(=O)[C@H](Cc3cc4ccccc4[nH]3)n3cc([C@@H](N)C(C)CC)nn3)CC2)nc(N2CCN(C(=O)[C@H](Cc3cc4ccccc4[nH]3)n3cc([C@@H](N)Cc4ccc(O)cc4)nn3)CC2)n1` (stereo not given in full): the EC50 was 3.78 µM.

Regarding `CCOC(=O)N1CCN(c2c(N3CCN(c4ccccc4F)CC3)c(=O)c2=O)CC1`, the EC50 is > 30 µM (inactive).

As to `Cc1nn2c(N)csc2nc1=O`, the EC50 result is “inactive” and the Ki worked out at 3.34 µM.

Turning to `CCCCCc1cc(=O)oc2c(C(CCN3CCCC3)c3ccc(N(C)C)cc3)c(OC)cc(OC)c12` (stereo not given), the EC50 was 26.4 µM.

With `CCN1CCN(Cc2ccc(NC(=O)c3cc(NC(=O)C(=O)c4c[nH]c5ccccc45)cc(OC)c3)cc2C(F)(F)F)CC1`, the EC50 is 0.5 µM.

In the case of `C#CCOCCOCCOCCNc1nc(N2CCN(C(=O)[C@H](Cc3ccc(O)cc3)n3cc([C@@H](N)C(C)CC)nn3)CC2)nc(N2CCN(C(=O)[C@H](Cc3cc4ccccc4[nH]3)n3cc([C@@H](N)CC(C)C)nn3)CC2)n1` (stereo not given in full), the half-maximal effective concentration (EC50) is 24.9 µM.

For the compound `CCN1/C(=C/c2ccc3cc(C)ccc3[n+]2CC)Sc2cc(C)c(C)cc21`, the EC50 is > 30 µM (inactive).

Regarding `CCNc1ccc2noc3c2c1C(=O)c1ccccc1-3`, the half-maximal effective concentration (EC50) was 4.43 µM and the Ki was 4.34 µM.

For `O=C(NNc1c2ccccc2nc2ccccc12)c1cc2ccccc2cc1O`, the EC50 is > 30 µM (inactive).

Consider `CCN(CC)CCOc1ccc2c(c1)C(=NNC(=O)c1ccccn1)c1cc(OCCN(CC)CC)ccc1-2`, for which the EC50 is 5.52 µM.

On to `O=[N+]([O-])c1ccc(/C=C/C2=NN(c3ccccc3)C(c3ccco3)C2)o1` (stereo not given), for which the EC50 was > 30 µM (inactive).

With `CCN1C(c2ccccc2)=C(c2ccccc2)S/C1=C\C=C1/SC(=S)N(C)C1=O`, the EC50 is 3.35 µM and the inhibitory constant (Ki) stood at 3.28 µM.

For `CCCCCCCCCCOC(=O)Cn1c(COc2ccccc2)[n+](C)c2ccccc21`, the EC50 was 6 µM.

`C#CCOCCOCCOCCNc1nc(N2CCN(C(=O)[C@H](Cc3ccc(O)cc3)n3cc([C@@H](N)CC(C)C)nn3)CC2)nc(N2CCN(C(=O)[C@H](Cc3cc4ccccc4[nH]3)n3cc([C@@H](N)CC(C)C)nn3)CC2)n1`: the EC50 was > 30 µM (inactive).

As for `Brc1ccc(N=C/C=C/C=C/Nc2ccc(Br)cc2)cc1`, the EC50 is > 30 µM (inactive).

`CCCCCCCCCCOC(=O)Cn1c(COc2ccccc2OC)[n+](C)c2ccccc21`: the EC50 is > 30 µM (inactive).

Regarding `CCN1CCN(Cc2ccc(NC(=O)c3cc(NC(=O)c4cncc(-c5cccs5)c4)cc(OC)c3)cc2C(F)(F)F)CC1`, the EC50 was > 30 µM (inactive).

On to `O=C1Nc2ccc(Br)cc2/C1=N/N=C/C1=C(N2CCOCC2)C(=C\c2ccccc2)/CC1`, for which the EC50 entry is “inactive” and the inhibitory constant (Ki) is 2.03 µM.

Turning to `C#CCOCCOCCOCCNc1nc(N2CCN(C(=O)[C@H](Cc3cc4ccccc4[nH]3)n3cc([C@@H](N)CC(C)C)nn3)CC2)nc(N2CCN(C(=O)[C@H](Cc3cc4ccccc4[nH]3)n3cc([C@@H](N)CC(C)C)nn3)CC2)n1`, the EC50 was 1.44 µM.

On to `CCCCCCCCCCOC(=O)Cn1c(COc2ccc(OC)cc2)[n+](C)c2ccccc21`, for which the EC50 was > 30 µM (inactive).

As to `CN1CCN(CC(=O)N2CCn3c4c(c5cc(C6CCCCC6)ccc53)CCCC42)CC1` (stereo not given), the EC50 is > 30 µM (inactive).

As for `CCN(CC)CCOC(=O)c1ccc(N/C=C(/C#N)c2nc(-c3ccc(OC)c(OC)c3)cs2)cc1`, the EC50 was > 30 µM (inactive).

Turning to `Cc1sc(NC(=O)c2ccccc2)c(C(c2ccccn2)N2CCN(CCO)CC2)c1C` (stereo not given), the EC50 was > 30 µM (inactive).

On to `C#CCOCCOCCOCCNc1nc(N2CCN(C(=O)[C@H]([C@@H](C)CC)n3cc([C@@H](N)CC(C)C)nn3)CC2)nc(N2CCN(C(=O)[C@H](Cc3cc4ccccc4[nH]3)n3cc([C@@H](N)Cc4ccc(O)cc4)nn3)CC2)n1`, for which the EC50 is > 30 µM (inactive).

With `CCCCCCCCCCOC(=O)Cn1c(COc2ccc(C)cc2)[n+](C)c2ccccc21`, the EC50 was 4.57 µM.

Consider `CC(=O)Nc1ccc(OCC(O)Cn2c3ccccc3c3ccccc32)cc1` (stereo not given), for which the EC50 is > 30 µM (inactive).

Consider `CN(C)CCCn1c(SCC(=O)Nc2nc(-c3cccc(Br)c3)cs2)nc2ccccc2c1=O`, for which the EC50 is > 30 µM (inactive).

`COc1cccc(OC)c1-c1nn2c(-c3cc(-c4ccccc4)n[nH]3)nnc2s1`: the EC50 is > 30 µM (inactive).

In the case of `C#CCOCCOCCOCCNc1nc(N2CCN(C(=O)C(Cc3cc4ccccc4[nH]3)n3cc(C(N)C(C)CC)nn3)CC2)nc(N2CCN(C(=O)C(Cc3cc4ccccc4[nH]3)n3cc(C(N)C(C)CC)nn3)CC2)n1` (stereo not given), the EC50 is 4.1 µM.

On to `COc1ccc(NC(=O)N(Cc2cc3cc(C)ccc3[nH]c2=O)CC2CCCO2)cc1` (stereo not given), for which the EC50 was > 30 µM (inactive).

Consider `CCC(/C=C1\Sc2ccc(OC)cc2N1CCO)=C\c1sc2ccc(OC)cc2[n+]1CCO`, for which the EC50 was 0.51 µM and the Ki was determined as 0.5 µM.

Consider `CCCSc1ncnc2sc(C)c(C)c12`, for which the EC50 was > 30 µM (inactive).

For the compound `COC(=O)c1c(C)oc(C)c1S(=O)(=O)N(Cc1ccccc1)C(C)C`, the EC50 is > 30 µM (inactive).

Consider `O=C(OCC1O[C@@H](OC(=O)c2cc(O)c(O)c(O)c2)[C@@H](OC(=O)c2cc(O)c(O)c(O)c2)[C@@H](OC(=O)c2cc(O)c(O)c(O)c2)[C@@H]1OC(=O)c1cc(O)c(O)c(O)c1)c1cc(O)c(O)c(O)c1` (stereo not given in full), for which the EC50 was > 30 µM (inactive).

For `CNC(=O)C(=O)Nc1c(C)cc(C)cc1C`, the EC50 was > 30 µM (inactive).

On to `CCC(/C=C1\Sc2ccc(OC)cc2N1CC)=C\c1sc2ccc(OC)cc2[n+]1CCCS(=O)(=O)[O-]`, for which the EC50 was > 30 µM (inactive).

`CS(=O)(=O)N1N=C(c2ccccc2)CC1c1ccc2c(c1)OCO2` (stereo not given): the EC50 entry was “inactive” and the Ki is 0.95 µM.

Turning to `Cc1cc2ccccc2n1CCNC(=O)c1ccccc1`, the EC50 was > 30 µM (inactive).

For `O=C(Nc1ccc(Cl)cn1)c1ccc2c(Cl)c3c(nc2c1)CCC3`, the EC50 was > 30 µM (inactive).

With `O=C1c2ccccc2-c2onc3ccc(NCc4ccco4)c1c23`, the EC50 was > 30 µM (inactive).

Take `CN(C)CCCNc1cc(C(C)(C)C)nc2c(-c3ccc(Cl)cc3)cnn12`: the EC50 was > 30 µM (inactive).

Regarding `COc1cc(/C=N/NC(=O)c2cc3ccccc3cc2O)ccc1OCCN1CCCCC1`, the EC50 was > 30 µM (inactive).

Regarding `CCOC(=O)C(C(=O)OCC)c1cc(Br)c2noc3c2c1C(=O)c1ccccc1-3`, the EC50 result was “inactive” and the inhibition constant (Ki) turned out to be 2.9 µM.
